Data set [1] relates to IFNγ stimulated STAT1 phosphorylation in CD14+ monocytes. In words: Cellular JAK potency assay: inhibition of IFNγ-induced pSTAT1 in CD14+ monocytes. It is filed as cell-based. To be noted: Homo sapiens, Monocyte, read-out: pIC50, inhibition of IFNγ-induced pSTAT1 (converted). The method, then: The potency of the test compound for inhibition of interferon gamma (IFNγ) stimulated STAT1 phosphorylation was measured in CD14-positive (CD14+) monocytes derived from human whole blood (Stanford Blood Center) using flow cytometry. Because IFNγ signals through JAK, this assay provides a measure of JAK cellular potency.
Monocytes were identified using a fluorescein isothiocyanate (FITC) conjugated anti-CD14 antibody (Clone RM052, Beckman Coulter), and an Alexa Fluor 647 conjugated anti-pSTAT1 antibody (pY701, Clone 4a, BD Biosciences) was used to detect STAT1 phosphorylation.
Human peripheral blood mononuclear cells (PBMC) were isolated from human whole blood of healthy donors using a ficoll gradient. […] Cells were washed twice with FACS buffer, and then resuspended in 1:10 anti-pSTAT1 Alexa Fluor 647:FACS buffer (100 μL) for 30 min at RT in the dark, washed twice in FACS buffer, and analyzed using a LSRII flow cytometer (BD Biosciences).
To determine the inhibitory potency of the test compound, the median fluorescent intensity (MFI) of pSTAT1 was measured in CD14+ monocytes. IC50 values were determined from analysis of the inhibition curves of MFI vs compound concentration. Data are expressed as pIC50 (negative decadic logarithm IC50) values.

Data set [2] in a line: Dermal pharmacokinetics in mouse skin. It is filed as in vivo. To be noted: mice, model cream and ointment formulations, without detectable plasma exposure. An excerpt:
The objective of this assay was to determine the epidermal, dermal and plasma pharmacokinetics of a test compound following a 24 hr exposure to intact mouse or mini-pig skin.
Twenty-four hours prior to dosing the hair was shaved from the back of 25 g male Balb/c mice exposing an area at of least 6 cm^2 (about 10% of body surface) and, in a separate experiment, of 10 kg Gottingen mini-pigs exposing an area of at least 450 cm^2 (about 10% of body surface). At time zero, following isoflurane anesthesia, the test compound was applied to the back of mice or mini-pigs at a dose of 25 μL/cm^2. The skin was covered with an adhesive cover to prevent loss of compound to the cage or bedding.
Following 24 h exposure, the backs were gently washed with soap and water to remove non-absorbed drug and patted dry. Immediately following this washing, blood was drawn by cardiac puncture from the mice and via venipuncture from the mini-pigs. The outer skin (stratum corneum) was then removed by adhesive tape stripping. Upon exposure of the epidermis a 0.5 cm punch biopsy was taken. The epidermis and dermis were quickly separated, weighed and snap frozen. […]
Epidermis and dermis samples were homogenized in 1:10 (w/v) water using a Covaris ultrasonic homogenizer. Samples were extracted in 3 volumes of acetonitrile and quantified against a standard curve via LC-MS analysis.

A short description of data set [3]: Lung and plasma pharmacokinetics in mice. It is filed as in vivo, mouse. The settings on record: BALB/c mice, Form 1 suspension 0.1 mg/mL, 50 μL by oral aspiration. The method, then: Plasma and lung concentrations of compound 1 and ratios thereof were determined in the following manner. BALB/c mice from Charles River Laboratories were used in the assay. Compound 1 Form 1 of example 2 was formulated in 0.01% Tween 80 in normal saline (0.9% sodium chloride in water) at a concentration of 0.1 mg/mL as a suspension. 50 μL of the suspension formulation was introduced into the trachea of a mouse by oral aspiration. At various time points (0.083, 1, 4, 24, 48, 72, and 96 hr). Post dosing, blood samples were removed via cardiac puncture and intact lungs were excised from the mice. Blood samples were centrifuged (Eppendorf centrifuge, 5804R) for 4 minutes at approximately 12,000 rpm at 4° C. to collect plasma. Lungs were padded dry, weighed, and homogenized at a dilution of 1:3 in sterile water. Plasma and lung concentrations of compound 1 were determined by LC-MS analysis against analytical standards constructed into a standard curve in the test matrix. […] The lung half-life was calculated at approximately 40 hours. The lung to plasma ratio was determined as the ratio of the lung AUC in μg hr/g to the plasma AUC in μg hr/mL (where AUC is conventionally defined as the area under the curve of test compound concentration vs. time).

A further data set has as its target T1, GSK3B (Homo sapiens, UniProt P49841).
T1 construct: made in house; host or cells: T7 phage in E. coli (BL21-derived) or HEK-293
In words: Kinome screen, GSK3B. Format: binding. The settings on record: screened at 1 μM. Here is the method:
Kinase-tagged T7 phage strains were grown in parallel in 24-well blocks in an E. coli host derived from the BL21 strain. E. coli were grown to log-phase and infected with T7 phage from a frozen stock (multiplicity of infection=0.4) and incubated with shaking at 32° C. until lysis (90-150 minutes). The lysates were centrifuged (6,000×g) and filtered (0.2 μm) to remove cell debris. The remaining kinases were produced in HEK-293 cells and subsequently tagged with DNA for qPCR detection.
Streptavidin-coated magnetic beads were treated with biotinylated small molecule ligands for 30 minutes at room temperature to generate affinity resins for kinase assays. The liganded beads were blocked with excess biotin and washed with blocking buffer (SeaBlock (Pierce), 1% BSA, 0.05% Tween 20, 1 mM DTT) to remove unbound ligand and to reduce non-specific phage binding. […] Test compounds were prepared as 40× stocks in 100% DMSO and directly diluted into the assay. All reactions were performed in polypropylene 384-well plates in a final volume of 0.04 ml. […] The beads were then re-suspended in elution buffer (1×PBS, 0.05% Tween 20, 0.5 μM non-biotinylated affinity ligand) and incubated at room temperature with shaking for 30 minutes. The kinase concentration in the eluates was measured by qPCR.

T1 sequence (P49841 whole entry): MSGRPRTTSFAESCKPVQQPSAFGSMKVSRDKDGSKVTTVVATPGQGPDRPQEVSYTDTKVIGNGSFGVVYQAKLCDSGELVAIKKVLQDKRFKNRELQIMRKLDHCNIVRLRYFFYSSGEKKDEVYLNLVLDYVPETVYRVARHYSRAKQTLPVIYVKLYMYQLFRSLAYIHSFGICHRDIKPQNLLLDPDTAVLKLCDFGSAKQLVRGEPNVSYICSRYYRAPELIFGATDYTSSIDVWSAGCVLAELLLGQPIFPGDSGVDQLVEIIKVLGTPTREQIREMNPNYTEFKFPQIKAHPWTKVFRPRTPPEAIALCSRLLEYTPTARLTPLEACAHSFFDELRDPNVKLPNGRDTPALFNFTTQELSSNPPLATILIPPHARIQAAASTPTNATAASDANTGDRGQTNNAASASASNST

One may read the half-life as the time in which the quantity being followed falls by half. Low readings indicate rapid decline, high ones slow decline. A word on the inhibition: it is how much of the control response was suppressed. `CCc1cc(O)c(F)cc1-c1cc(F)c2c(-c3nc4c([nH]3)CCN(C(=O)CN3CCOCC3)C4)n[nH]c2c1` [Compound 1, 1-(2-(6-(2-ethyl-5-fluoro-4-hydroxyphenyl)-4-fluoro-1H-indazol-3-yl)-1,4,6,7-tetrahydro-5H-imidazo[4,5-c]pyridin-5-yl)-2-morpholinoethan-1-one]: the IC50 in data set [1] was around 79.4 nM. Besides, the “duration of sustained dermal levels” value in data set [2] is recorded as “at least 2 days”. Also, in data set [3], the “lung AUC (0-96 hr)” value turned out to be 360 µg·h/g. For the same compound, in data set [3] (mouse, lung and plasma, 5 μg/mouse, read-out: lung to plasma AUC ratio), the Kp is 1780. The compound also had a half-life in data set [3] (mouse, lung, 5 μg/mouse) of around 40 h. For the same compound, the inhibition at 1 µM against GSK3B stood at 31%.

(Values after patent US10493077B2, “Fused imidazo-piperidine JAK inhibitor compound” (THERAVANCE BIOPHARMA R&D IP, LLC, priority 2017, dated 2019).)
